Results taken from patent publication US5968940A, “Retinoids and methods of use of same” (priority 1996, dated 1999).

Tested on: Human promyelocytic leukemia HL-60 cells
Assay: Cell differentiation of HL-60 cells, nitroblue tetrazolium (NBT) reduction / morphology
Type: cell-based
Experimental: Human promyelocytic leukemia HL-60 cells were cultured in RPMI-1640 medium supplemented by 10% heat-inactivated calf serum and 100 U/ml of penicillin plus 100 μg/ml of streptomycin. The flasks containing cells and medium were incubated in an incubator with 5% CO2 at 37° C. Log phase cells were seeded into the medium at a concentration of 1.2×10^5to 1.4×10^5 cells per ml and cultured in flasks containing 5 ml of medium. Each group consisted of three flasks. Different concentrations of coumarin-retinoids were added. At intervals following the addition of coumarin-retinoids to the cultures, a small portion of cells was removed and live cells were counted under a light microscope using a dye-exclusionmethod with trypan blue. Cell differentiation was judged in terms of morphology and nitroblue tetrazolium (NBT) reduction.
For a determination of NBT reducing activity, a portion of the coumarin-retinoid-treated cells was removed at intervals following treatment and centrifuged. After centrifugation, 0.5 ml of 0.1% NBT (containing 100 ng TPA) was added to each tube. The contents of the test tubes were then incubated for 1 hour at 37° C. Cell smears were prepared from the cell sediment and stained using the Wright-Giemsa technique. For each smear prepared, 200 cells were isolated for examination under a light microscope with an oil immersion lens. Cells stained with blue-black granules were considered NBT-positive cells. The 50% differentiation or effective concentration (ED50 or EC50) is shown in terms of molar (M) concentration of the […] tested.
For a determination of cell morphology, a cell smear was prepared at intervals following treatment of cells for each coumarin-retinoid concentration group using the Wright-Giemsa stain technique. Stained cells were counted and classified under a light microscope with an oil immersion lens. After treatment with coumarin-retinoids, the morphological development of HL-60 cells proceeded toward mature granulocytes. This development was manifested by decreased cell volume; a lower nuclei to cytoplasm ratio; smaller or missing nuclei; concentration of chromatin; and the appearance of a certain proportion of intermediate and late granuloblasts (progranulocytes), elongated rod granulocytes, and granulocytes with branched nuclei.
The protocols of Examples 14 and 21 were used, for the NBT and MTT assays, respectively.

CC(=O)c1cc2c(C)cc(OC(=O)/C=C(C)/C=C/C=C(C)/C=C/C3=C(C)CCCC3(C)C)cc2oc1=O [Compound I-2]
NBT (+) % (10^-5 M): 84% | NBT (+) % (10^-6 M): 38% | NBT (+) % (10^-7 M): 2%

CC(=O)c1cc2ccc(OC(=O)/C=C(C)/C=C/C=C(C)/C=C/C3=C(C)CCCC3(C)C)c(C)c2oc1=O [Compound I-3]
NBT (+) % (10^-5 M): 88% | NBT (+) % (10^-6 M): 77% | NBT (+) % (10^-7 M): 12%

CC(=O)c1cc2c(C(=O)O)cc(OC(=O)/C=C(C)/C=C/C=C(C)/C=C/C3=C(C)CCCC3(C)C)cc2oc1=O [Compound I-4, 3-acetyl-5-carboxy-7-retinoyloxy coumarin]
NBT (+) % (10^-5 M): 92% | NBT (+) % (10^-6 M): 84% | NBT (+) % (10^-7 M): 73% | NBT (+) % (10^-8 M): 15%

CC(=O)c1cc2c(COC(=O)/C=C(C)/C=C/C=C(C)/C=C/C3=C(C)CCCC3(C)C)cc(OC(=O)/C=C(C)/C=C/C=C(C)/C=C/C3=C(C)CCCC3(C)C)cc2oc1=O [Compound I-7]
NBT (+) % (10^-5 M): 85% | NBT (+) % (10^-6 M): 65% | NBT (+) % (10^-7 M): 12%

CC(=O)c1cc2c(OC(=O)/C=C(C)/C=C/C=C(C)/C=C/C3=C(C)CCCC3(C)C)c(C(=O)O)ccc2oc1=O [Compound I-8]
NBT (+) % (10^-5 M): 98% | NBT (+) % (10^-6 M): 69% | NBT (+) % (10^-7 M): 55% | NBT (+) % (10^-8 M): 34%

CCOC(=O)c1cc(OC(=O)/C=C(C)/C=C/C=C(C)/C=C/C2=C(C)CCCC2(C)C)cc2oc(=O)c(C(C)=O)cc12 [Compound I-11, 3-acetyl-5-ethoxycarbyl-7-retinoyloxy-coumarin]
NBT (+) % (10^-4 M): 77% | NBT (+) % (10^-5 M): 72% | NBT (+) % (10^-6 M): 49% | NBT (+) % (10^-7 M): 8%

CCCCCCCCCCCCOC(=O)c1cc(OC(=O)/C=C(C)/C=C/C=C(C)/C=C/C2=C(C)CCCC2(C)C)c(OC(=O)/C=C(C)/C=C/C=C(C)/C=C/C2=C(C)CCCC2(C)C)c2oc(=O)c(C(=O)OCC)cc12 [Compound I-12]
NBT (+) % (10^-5 M): 82% | NBT (+) % (10^-6 M): 47% | NBT (+) % (10^-7 M): 30% | NBT (+) % (10^-8 M): 0% | NBT (+) % (10^-9 M): 0%

CCOC(=O)c1cc2ccc(OC(=O)/C=C(C)/C=C/C=C(C)/C=C/C3=C(C)CCCC3(C)C)c(C)c2oc1=O [Compound I-15]
NBT (+) % (10^-5 M): 93% | NBT (+) % (10^-6 M): 84% | NBT (+) % (10^-7 M): 46% | NBT (+) % (10^-8 M): 12%

CCOC(=O)c1cc2ccc(OC(=O)/C=C(C)/C=C/C=C(C)/C=C/C3=C(C)CCCC3(C)C)cc2oc1=O [Compound I-17]
NBT (+) % (10^-5 M): 84% | NBT (+) % (10^-6 M): 54% | NBT (+) % (10^-7 M): 2%

CCOC(=O)c1cc2cc(Cl)c(OC(=O)/C=C(C)/C=C/C=C(C)/C=C/C3=C(C)CCCC3(C)C)cc2oc1=O [Compound I-18]
NBT (+) % (10^-5 M): 44% | NBT (+) % (10^-6 M): 8%

CCOC(=O)c1cc2c(C(=O)O)cc(OC(=O)/C=C(C)/C=C/C=C(C)/C=C/C3=C(C)CCCC3(C)C)cc2oc1=O [Compound I-19]
NBT (+) % (10^-4 M): 92% | NBT (+) % (10^-5 M): 84% | NBT (+) % (10^-6 M): 5%

CCOC(=O)c1cc2c(OC(=O)/C=C(C)/C=C/C=C(C)/C=C/C3=C(C)CCCC3(C)C)cc(OC(=O)/C=C(C)/C=C/C=C(C)/C=C/C3=C(C)CCCC3(C)C)cc2oc1=O [Compound I-21]
NBT (+) % (10^-5 M): 94% | NBT (+) % (10^-6 M): 80% | NBT (+) % (10^-7 M): 41% | NBT (+) % (10^-8 M): 17%

CC1=C(/C=C/C(C)=C/C=C/C(C)=C/C(=O)Oc2cc(C(=O)O)c3cc(C(N)=O)c(=O)oc3c2)C(C)(C)CCC1 [Compound I-26]
NBT (+) % (10^-5 M): 97% | NBT (+) % (10^-6 M): 91% | NBT (+) % (10^-7 M): 53% | NBT (+) % (10^-8 M): 34%

CC1=C(/C=C/C(C)=C/C=C/C(C)=C/C(=O)Oc2cc3oc(=O)c(C(N)=O)cc3cc2Cl)C(C)(C)CCC1 [Compound I-27]
NBT (+) % (10^-5 M): 88% | NBT (+) % (10^-6 M): 80% | NBT (+) % (10^-7 M): 17%
